Source: patent US20160206543A1, “SYNERGISTIC COMPOSITIONS AND METHODS FOR MITIGATING SKIN IRRITATION AND ENHANCING SKIN BARRIER FUNCTION” (GOJO INDUSTRIES, INC., priority 2014, published 2016)

Assays:
Assay type in all cases: cell-based, human
[1] = system: DSC3; test: Cell-cell junction, qRT-PCR for desmocollin (DSC3); settings: keratinocytes treated overnight; KGM = 100
Excerpt: (§1) Tight Junctions are the closely associated areas of two cells whose membranes join together forming a virtually impermeable barrier to fluid. A desmosome is a cell structure specialized for cell-to-cell adhesion. A type of junction complex, they are localized spot-like adhesions randomly arranged on the lateral sides of plasma membranes. Desmosomes are molecular complexes of cell adhesion proteins and linking proteins that attach the cell surface adhesion proteins to intracellular keratin cytoskeletal filaments.
(§2) The cell adhesion proteins of the desmosome, desmoglein (DSG) and desmocollin (DSC), are members of the cadherin family of cell adhesion molecules. They are biomarker of skin tight junctions. In particular, DSG1 is a biomarker for cell binding, the higher the expression, the better skin cell-cell junction and the better skin barrier function will be. DSC3 is a protein in humans that is encoded by the DSC3 gene, the higher the expression, the better skin cell-cell junction and the better skin barrier function will be.
(§3) In the present method, keratinocytes were treated with the sample compositions in a 6-well plate overnight. After washing with cold phosphate-buffered saline (PBS), total RNAs were prepared from each well. Real-Time Quantitative Reverse Transcription PCR (qRT-PCR) was performed to detect the target genes ([…]) expression level using a One-step TaqMan® RT-PCR kit (Life Technologies).
(§4) Samples containing various amounts of acetyl hexapeptide-38 and/or acetyl hexapeptide-46 were tested for cell-cell junction, as described above. Solution of Vitamin D3 and keratinocyte growth medium (KGM) were used for comparison. The results are summarized in Tables 3-4 below, and graphically represented in FIGS. 3-4. It can be seen that compositions containing acetyl hexapeptide-38 and/or acetyl hexapeptide-46 enhanced cell-cell junction when compared to Vitamin D3 and KGM.

[2] = system: DSG1; test: Cell-cell junction, qRT-PCR for desmoglein (DSG1); settings: keratinocytes treated overnight; KGM = 100
Excerpt: as §1, §2, §3, §4

[3] = system: IL-8; test: IL-8 ELISA (Part 1, Quantikine kit), surfactant-induced irritation; settings: for IL-8 secreted: human dermal keratinocytes co-treated with surfactant mixture (sodium laureth sulfate + polyquaternium-10), Control B = 100%, Control A = 0%; for Reduction of IL-8 Secretion Compared to Control B: subtracting from 100% for Control B
Excerpt: Interleukin 8 (IL-8) is a chemokine and proinflammatory cytokine produced by macrophages and other cell types such as epithelial cells. It is secreted from keratinocytes in skin in response to inflammatory stimuli. IL-8 is secreted and is an important mediator of the immune reaction in the innate immune system response. IL-8 overexpressed is a biomarker of skin irritation.
For Control A, human dermal keratinocytes are left untreated. No irritation is expected, and therefore Control A provides a baseline. For Control B, IL-8 is induced in human dermal keratinocytes by applying a surfactant mixture that is a combination of sodium laureth sulfate and polyquaternium-10. For all other samples, the human dermal keratinocytes are co-treated with the surfactant mixture and a composition containing the ingredient of interest. Decreased Il-8 expression reflects the ingredient's anti-irritation activity.
In order to carry out the test method, an assay kit was employed that was obtained from R&D Systems: Human CXCL8/IL-8 Quantikine ELISA Kit.
The following steps were followed: 1. Bring all reagents and samples to room temperature before use. 2. Prepare all reagents, standard dilutions, and samples. 3. Remove excess microplate strips from the plate frame, return them to the foil pouch containing the desiccant pack, and reseal. 4. Add 100 μL of Assay Diluent to each well. 5. Add 50 μL of Standard, control, or sample to each well. Cover with a plate sealer, and incubate at room temperature for 2 hours. 6. Aspirate each well and wash, repeating the process 3 times for a total of 4 washes. 7. Add 100 μL of Conjugate to each well. Cover with a new plate sealer, and incubate at room temperature for 1 hour. 8. Aspirate and wash 4 times. 9. Add 200 μL Substrate Solution to each well. Incubate at room temperature for 30 minutes, making sure to protect the wells from the light. 10. Add 50 μL of Stop Solution to each well. The liquid was removed from the well and, using a colorimeter, absorbance was measured at 450 nanometers (nm) within 30 minutes. Wavelength correction was set to 540 nm or 570 nm.
The samples were tested for IL-8 secretion as described in the test method above. That is, for Control A, human dermal keratinocytes were left untreated. For Control B, IL-8 a surfactant mixture that was a combination of sodium laureth sulfate and polyquaternium-10. For all other samples, the human dermal keratinocytes were co-treated with the surfactant mixture and a composition containing the ingredient of interest. Decreased 11-8 expression reflects the ingredient's anti-irritation activity. The results are summarized in Table 2 and shown graphically in FIG. 1.
The amount of the reduction in IL-8 secretion for the test samples (subtracting from 100% for Control B) is summarized in Table 2 and shown graphically in FIG. 2. It can be seen that the combination of acetyl hexapeptide-46 and acetyl hexapeptide-38 produce an enhanced reduction in IL-8 secretion, particularly for the higher concentrations.

[4] = system: APQ3; test: Skin water channel biomarker: APQ3 expression; settings: FIG. 10
Excerpt: FIG. 5 is a graphical representation of the effect of various compositions on the irritation response of cells treated with known irritants, as quantified by measuring IL-8 secretion, and on cell viability. FIG. 6 is a graphical representation of Involucrin Expression—Keratinocytes (KC) differentiation. FIG. 7 is a graphical representation of PPARδ expression—ceramides related biomarker. FIG. 8 is a graphical representation of ABCA12 expression—fatty acid related biomarker. FIG. 9 is a graphical representation of DSC1 expression—cell-cell junction biomarker. FIG. 10 is a graphical representation of APQ3 expression—skin water channel.
An in vitro model was employed, using monolayer human dermal keratinocytes culture (KGM). Two controls were tested: the medium and inflammatory cytokines interleukin (IL-1b).
Skin Barrier Biomarkers: ABCA12, Involucrin, PPARδ. Different concentrations of ingredients were used to treat the keratinocyte for 24 hours. Cells were collected and total RNA prepared from the treated cells. Real-time RT-PCT was used to detect different barrier function related biomarker's gene expression level. Comparative Benchmark: Vitamin D3 (cholecalciferol) in three different concentrations.

Molecule | DSC3 % [1] [%] | IL-8 secreted [3] [%] | Reduction of IL-8 Secretion Compared to Control B [3] [%] | further results
C=C1CC[C@H](O)C/C1=C/C=C1\CCC[C@]2(C)[C@@H]([C@H](C)CCCC(C)C)CC[C@@H]12 [VitD3, cholecalciferol, reference compound] | 109 |  |  | DSG1 % [2]: 65%
Acetyl hexapeptide-38 [Example 3A] | 160 |  |  | 
Acetyl hexapeptide-38 [Example 3B] | 205 |  |  | DSG1 % [2]: 144%
Acetyl hexapeptide-38 [Example 3C] | 210 |  |  | DSG1 % [2]: 178%
Acetyl hexapeptide-46 [Example 3D] | 230 |  |  | 
Acetyl hexapeptide-46 [Example 3E] | 377 |  |  | DSG1 % [2]: 162%
Acetyl hexapeptide-46 [Example 3F] | 265 |  |  | DSG1 % [2]: 199%
acetyl hexapeptide-38 |  |  |  | effect on IL-8 secretion compared to Control B (in words) [3]: reduce the IL-8 secretion
acetyl hexapeptide-38 [Example 1A] |  | 69.60 | 30.40 | 
acetyl hexapeptide-38 [Example 1B] |  | 71.70 | 28.30 | 
acetyl hexapeptide-38 [Example 1C] |  | 84.90 | 15.10 | 
acetyl hexapeptide-38 [Example 1D] |  | 95.80 | 4.20 | 
acetyl hexapeptide-38 [Example 1G] |  | 57.20 | 42.80 | 
acetyl hexapeptide-46 |  |  |  | effect on IL-8 secretion compared to Control B (in words) [3]: reduce the IL-8 secretion; APQ3 expression in KC (in words) [4]: does not individually stimulate APQ3 expression
acetyl hexapeptide-46 [Example 2A] |  | 27.10 | 72.90 | 
acetyl hexapeptide-46 [Example 2B] |  | 50.90 | 49.10 | 
acetyl hexapeptide-46 [Example 2C] |  | 65.60 | 34.40 | 
acetyl hexapeptide-46 [Example 2D] |  | 78.20 | 21.80 | 
acetyl hexapeptide-46 [Example 2G] |  | −6.90 | 106.90 | 
